According to PubChem BioAssay AID1919008 (Molecular Pharmacology Branch, DTP, NCI, 2023):

Tested on: DMS-114 complex spheroids with HUVEC/MSC, growth % test/control
Assay: Anticancer human tumor DMS-114 cell line growth inhibition [AhR];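 further: spheroids exposed to agents for 7 days before readout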;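 on viability, T/C: 100% = DMSO vehicle control wells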
Conditions: for viability, T/C: stronger effect = lower value
How it was run: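 Complex tumor spheroids co-cultured with HUVEC and human MSC stroma; AhR antagonists tested in combination with standard-of-care and investigational agents. Top concentration at or near clinical Cmax (else 10 microM), half-log dilutions; growth expressed as percent test/control.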

[1] = curve of first compound, second compound 0.1 µM
[2] = curve of first compound, second compound 0.316 µM
[3] = curve of first compound, second compound 1 µM
[4] = curve of first compound, second compound 3.16 µM
[5] = curve of first compound, second compound 10 µM
[6] = second compound 0.1 µM, first compound 0.00949 µM
[7] = second compound 0.1 µM, first compound 0.03 µM
[8] = second compound 0.1 µM, first compound 0.0949 µM
[9] = second compound 0.1 µM, first compound 0.3 µM
[10] = second compound 0.316 µM, first compound 0.00949 µM
[11] = second compound 0.316 µM, first compound 0.03 µM
[12] = second compound 0.316 µM, first compound 0.0949 µM
[13] = second compound 0.316 µM, first compound 0.3 µM
[14] = second compound 1 µM, first compound 0.00949 µM
[15] = second compound 1 µM, first compound 0.03 µM
[16] = second compound 1 µM, first compound 0.0949 µM
[17] = second compound 1 µM, first compound 0.3 µM
[18] = second compound 3.16 µM, first compound 0.00949 µM
[19] = second compound 3.16 µM, first compound 0.03 µM
[20] = second compound 3.16 µM, first compound 0.0949 µM
[21] = second compound 3.16 µM, first compound 0.3 µM
[22] = second compound 10 µM, first compound 0.00949 µM
[23] = second compound 10 µM, first compound 0.03 µM
[24] = second compound 10 µM, first compound 0.0949 µM
[25] = second compound 10 µM, first compound 0.3 µM
[26] = second compound 0.1 µM, first compound 0.0316 µM
[27] = second compound 0.1 µM, first compound 0.1 µM
[28] = second compound 0.1 µM, first compound 0.316 µM
[29] = second compound 0.1 µM, first compound 1 µM
[30] = second compound 0.1 µM, first compound 3.16 µM
[31] = second compound 0.1 µM, first compound 10 µM
[32] = second compound 0.316 µM, first compound 0.0316 µM
[33] = second compound 0.316 µM, first compound 0.1 µM
[34] = second compound 0.316 µM, first compound 0.316 µM
[35] = second compound 0.316 µM, first compound 1 µM
[36] = second compound 0.316 µM, first compound 3.16 µM
[37] = second compound 0.316 µM, first compound 10 µM
[38] = second compound 1 µM, first compound 0.0316 µM
[39] = second compound 1 µM, first compound 0.1 µM
[40] = second compound 1 µM, first compound 0.316 µM
[41] = second compound 1 µM, first compound 1 µM
[42] = second compound 1 µM, first compound 3.16 µM
[43] = second compound 1 µM, first compound 10 µM
[44] = second compound 3.16 µM, first compound 0.0316 µM
[45] = second compound 3.16 µM, first compound 0.1 µM
[46] = second compound 3.16 µM, first compound 0.316 µM
[47] = second compound 3.16 µM, first compound 1 µM
[48] = second compound 3.16 µM, first compound 3.16 µM
[49] = second compound 3.16 µM, first compound 10 µM
[50] = second compound 10 µM, first compound 0.0316 µM
[51] = second compound 10 µM, first compound 0.1 µM
[52] = second compound 10 µM, first compound 0.316 µM
[53] = second compound 10 µM, first compound 1 µM
[54] = second compound 10 µM, first compound 3.16 µM
[55] = second compound 10 µM, first compound 10 µM

## CCN(c1cc(-c2ccc(CN3CCOCC3)cc2)cc(C(=O)NCc2c(C)cc(C)[nH]c2=O)c1C)C1CCOCC1 + Cc1ccccc1N=Nc1ccc(NC(=O)c2ccnn2C)c(C)c1
[1]
  IC50: > 3000 nM
[2]
  IC50: > 3000 nM
[3]
  IC50: > 3000 nM
[4]
  IC50: > 3000 nM
[5]
  IC50: > 3000 nM
[6]
  viability, T/C: 97.5%
[7]
  viability, T/C: 105%
[8]
  viability, T/C: 111%
[9]
  viability, T/C: 114%
Second compound 0.1 µM, first compound 0.949 µM
  viability, T/C: 101%
Second compound 0.1 µM, first compound 3 µM
  viability, T/C: 102%
[10]
  viability, T/C: 105%
[11]
  viability, T/C: 101%
[12]
  viability, T/C: 104%
[13]
  viability, T/C: 113%
Second compound 0.316 µM, first compound 0.949 µM
  viability, T/C: 108%
Second compound 0.316 µM, first compound 3 µM
  viability, T/C: 100%
[14]
  viability, T/C: 108%
[15]
  viability, T/C: 101%
[16]
  viability, T/C: 110%
[17]
  viability, T/C: 110%
Second compound 1 µM, first compound 0.949 µM
  viability, T/C: 112%
Second compound 1 µM, first compound 3 µM
  viability, T/C: 98.8%
[18]
  viability, T/C: 108%
[19]
  viability, T/C: 104%
[20]
  viability, T/C: 110%
[21]
  viability, T/C: 102%
Second compound 3.16 µM, first compound 0.949 µM
  viability, T/C: 107%
Second compound 3.16 µM, first compound 3 µM
  viability, T/C: 105%
[22]
  viability, T/C: 106%
[23]
  viability, T/C: 104%
[24]
  viability, T/C: 102%
[25]
  viability, T/C: 108%
Second compound 10 µM, first compound 0.949 µM
  viability, T/C: 103%
Second compound 10 µM, first compound 3 µM
  viability, T/C: 102%

## O=C(C=Cc1cccc(S(=O)(=O)Nc2ccccc2)c1)NO + Cc1cncc(-c2nc(NCCc3c[nH]c4ccccc34)c3ncn(C(C)C)c3n2)c1
[1]
  IC50: 451 nM
[2]
  IC50: 402 nM
[3]
  IC50: 429 nM
[4]
  IC50: 355 nM
[5]
  IC50: < 31.6 nM
[26]
  viability, T/C: 100%
[27]
  viability, T/C: 91.9%
[28]
  viability, T/C: 59.5%
[29]
  viability, T/C: 27.5%
[30]
  viability, T/C: 11.7%
[31]
  viability, T/C: 9.54%
[32]
  viability, T/C: 84.3%
[33]
  viability, T/C: 77.7%
[34]
  viability, T/C: 55.4%
[35]
  viability, T/C: 28.3%
[36]
  viability, T/C: 10.2%
[37]
  viability, T/C: 9.73%
[38]
  viability, T/C: 90.1%
[39]
  viability, T/C: 80%
[40]
  viability, T/C: 59.2%
[41]
  viability, T/C: 26.9%
[42]
  viability, T/C: 10.7%
[43]
  viability, T/C: 9.6%
[44]
  viability, T/C: 78.8%
[45]
  viability, T/C: 75.5%
[46]
  viability, T/C: 52.8%
[47]
  viability, T/C: 21.3%
[48]
  viability, T/C: 8.43%
[49]
  viability, T/C: 7.76%
[50]
  viability, T/C: 46.9%
[51]
  viability, T/C: 34%
[52]
  viability, T/C: 20.1%
[53]
  viability, T/C: 9.92%
[54]
  viability, T/C: 4.09%
[55]
  viability, T/C: 4.15%

## CC(CO)NC(=O)c1cc(-c2ccc(Cl)cc2)nn(-c2cnn(C)c2)c1=O (stereo not drawn)
Compound 0.1 µM
  viability, T/C: 98.2% [middle of 20 runs]
Compound 1 µM
  viability, T/C: 95.8% [middle of 21 runs]
Compound alone, run of 07/12/2022
  IC50: > 10000 nM

## CCc1c2c(nc3ccc(O)cc13)-c1cc3c(c(=O)n1C2)COC(=O)[C@]3(O)CC + Cc1ccccc1N=Nc1ccc(NC(=O)c2ccnn2C)c(C)c1
[1]
  IC50: 9.05 nM
[2]
  IC50: 8.31 nM
[3]
  IC50: 9.91 nM
[4]
  IC50: 10.5 nM
[5]
  IC50: 13.4 nM
Second compound 0.1 µM, first compound 0.000949 µM
  viability, T/C: 98.3%
Second compound 0.1 µM, first compound 0.003 µM
  viability, T/C: 97.7%
[6]
  viability, T/C: 48%
[7]
  viability, T/C: 35.2%
[8]
  viability, T/C: 38.4%
[9]
  viability, T/C: 37.7%
Second compound 0.316 µM, first compound 0.000949 µM
  viability, T/C: 103%
Second compound 0.316 µM, first compound 0.003 µM
  viability, T/C: 80.9%
[10]
  viability, T/C: 47%
[11]
  viability, T/C: 30.5%
[12]
  viability, T/C: 32.5%
[13]
  viability, T/C: 32.3%
Second compound 1 µM, first compound 0.000949 µM
  viability, T/C: 94%
Second compound 1 µM, first compound 0.003 µM
  viability, T/C: 90.9%
[14]
  viability, T/C: 50.5%
[15]
  viability, T/C: 36.4%
[16]
  viability, T/C: 36.3%
[17]
  viability, T/C: 40.6%
Second compound 3.16 µM, first compound 0.000949 µM
  viability, T/C: 93.2%
Second compound 3.16 µM, first compound 0.003 µM
  viability, T/C: 79.1%
[18]
  viability, T/C: 52.5%
[19]
  viability, T/C: 35.6%
[20]
  viability, T/C: 39.8%
[21]
  viability, T/C: 41.4%
Second compound 10 µM, first compound 0.000949 µM
  viability, T/C: 83.1%
Second compound 10 µM, first compound 0.003 µM
  viability, T/C: 82.2%
[22]
  viability, T/C: 53.7%
[23]
  viability, T/C: 40.4%
[24]
  viability, T/C: 40.5%
[25]
  viability, T/C: 43.5%

## CC(C)c1c(-c2ccccc2)nc2c(C#N)c[nH]n2c1=O + Cc1ccccc1N=Nc1ccc(NC(=O)c2ccnn2C)c(C)c1
[1]
  IC50: > 10000 nM
[2]
  IC50: > 10000 nM
[3]
  IC50: > 10000 nM
[4]
  IC50: > 10000 nM
[5]
  IC50: > 10000 nM
[26]
  viability, T/C: 104%
[27]
  viability, T/C: 108%
[28]
  viability, T/C: 105%
[29]
  viability, T/C: 103%
[30]
  viability, T/C: 113%
[31]
  viability, T/C: 95.9%
[32]
  viability, T/C: 95.5%
[33]
  viability, T/C: 97.7%
[34]
  viability, T/C: 98.9%
[35]
  viability, T/C: 94.3%
[36]
  viability, T/C: 95.9%
[37]
  viability, T/C: 101%
[38]
  viability, T/C: 95.3%
[39]
  viability, T/C: 96.8%
[40]
  viability, T/C: 102%
[41]
  viability, T/C: 103%
[42]
  viability, T/C: 95.3%
[43]
  viability, T/C: 99.2%
[44]
  viability, T/C: 96%
[45]
  viability, T/C: 95.8%
[46]
  viability, T/C: 93%
[47]
  viability, T/C: 96.3%
[48]
  viability, T/C: 107%
[49]
  viability, T/C: 102%
[50]
  viability, T/C: 98.3%
[51]
  viability, T/C: 96.9%
[52]
  viability, T/C: 95.6%
[53]
  viability, T/C: 90.5%
[54]
  viability, T/C: 94.7%
[55]
  viability, T/C: 88.8%

## CC1COCCN1c1cc(C2(S(C)(=N)=O)CC2)nc(-c2ccnc3[nH]ccc23)n1 (stereo not drawn) + CC(CO)NC(=O)c1cc(-c2ccc(Cl)cc2)nn(-c2cnn(C)c2)c1=O
[1]
  IC50: 4220 nM
[2]
  IC50: 4930 nM
[3]
  IC50: 4930 nM
[4]
  IC50: 2120 nM
[5]
  IC50: 1780 nM
[26]
  viability, T/C: 109%
[27]
  viability, T/C: 84.7%
[28]
  viability, T/C: 96.7%
[29]
  viability, T/C: 84.6%
[30]
  viability, T/C: 54.3%
[31]
  viability, T/C: 36.1%
[32]
  viability, T/C: 94.9%
[33]
  viability, T/C: 101%
[34]
  viability, T/C: 93.4%
[35]
  viability, T/C: 89.5%
[36]
  viability, T/C: 62.2%
[37]
  viability, T/C: 30.5%
[38]
  viability, T/C: 112%
[39]
  viability, T/C: 86.6%
[40]
  viability, T/C: 85.8%
[41]
  viability, T/C: 91.2%
[42]
  viability, T/C: 55.6%
[43]
  viability, T/C: 33.4%
[44]
  viability, T/C: 105%
[45]
  viability, T/C: 106%
[46]
  viability, T/C: 93.6%
[47]
  viability, T/C: 65.4%
[48]
  viability, T/C: 43%
[49]
  viability, T/C: 27.1%
[50]
  viability, T/C: 103%
[51]
  viability, T/C: 96.1%
[52]
  viability, T/C: 98.9%
[53]
  viability, T/C: 61.1%
[54]
  viability, T/C: 41.3%
[55]
  viability, T/C: 27.7%
